# Measurements: patent US7776854B2, “Benzazole derivatives for the treatment of scleroderma” (Merck Serono SA, priority 2001, dated 2010)
# Legend:
# [1] = system: bleomycin-induced lung inflammation; assay: Determination of bleomycin-induced pulmonary oedema (lung wet/dry weight difference); type: in vivo, mice
# Procedure: (§1) Female 10- to 12-week-old C57BL/6 wild-type mice were intratracheally instilled with bleomycin (3.75 U/kg) dissolved in 10 μl saline to induce the fibrosis in the lungs. The treatment with a test compound started on day 0 and was continued daily—from day 0 (1 hour before the bleomycin instillation) to day 17. The test compound was administered orally at different dosages. Control mice were intratracheally instilled with saline on day 0. The body weight loss was recorded on a daily basis and the results of the determination are graphically represented in FIG. 1.
# Lung fibrotic changes following instillation of bleomycin result from the infiltration of inflammatory cells like macrophages, lymphocytes and neutrophils into the lungs a well as an increase in pro-inflammatory cytokines such as TNFα. The pulmonary oedema is analyzed to determine whether a test compound affects the bleomycin-induced lung inflammation. What is determined is the difference wet/dry of the examined lungs, where high differences indicate a high degree of pulmonary oedema.
# Mice were treated as described in Example 2. The test compound was compound (A) (i.e. 1,3-benzothiazol-2-yl(2-{[4-(morpholin-4-ylmethyl)benzyl]-oxy}pyrimidin-4-yl)aceto-nitrile). […] The lung dry and wet weight differences were calculated and graphically reported in FIG. 2. which illustrates the outcome of the assay for the test compound (A).
# [2] = system: bleomycin-induced lung fibrosis; assay: Determination of bleomycin-induced body weight loss; type: in vivo; settings: C57BL/6 mice
# Procedure: The objective of the present Assay is to determine the loss of body weight of mice which is usually triggered by bleomycin-induced lung fibrosis.
# as §1
# [3] = system: bleomycin-induced lung fibrosis; assay: Determination of bleomycin-induced pulmonary fibrosis (histological scoring); type: in vivo, mice
# Procedure: as §1
# Injection of bleomycin in mice induces focal fibrotic lesions with thickened intra-alveolar septa, collapse of alveolar septa as well as massive infiltration of lymphocytes into the lung interstitium. Such focal fibrotic lesions are histologically determined on day 17 after bleomycin administration.
# Mice were treated as described in Example 2. […] Morphological evaluation of bleomycin-induced lung inflammation and fibrosis was performed using a semiquantitative scoring method consisting in a visual evaluation of histological section photos in which the surface of the fibrotic part of the lung is evaluated compared to the total surface. […]
# [4] = system: bleomycin-induced lung fibrosis; assay: Determination of bleomycin-induced lung collagen content (hydroxyproline); type: in vivo, mice; settings: 7 mg/kg orally, day 17, p=0.009
# Procedure: as §1
# The objective of the present assay is to determine the reduction in lung fibrosis by specifically measuring the hydroxyproline content in the lungs of bleomycin-treated mice. Hydroxyproline is an amino acid component necessary for the build-up of collagen. The quantification of hydroxyproline in the lung after collagen hydrolysis is therefore seen as a suitable indicator for lung collagen content.
# Mice were treated as described in Example 2. At day 17 of instillation, the animals were euthanized, and both lungs were removed. Total lung collagen was determined by analysis of hydroxyproline. Briefly, lungs were homogenized in Tris-HCl, pH 7.6, with a Tissue Tearor followed by incubation in Amberlite overnight at 115° C. […] Samples were cooled for 10 min and read at 560 nm on spectrophotometer. […]
compound,measurement,setting,value
"N#CC(c1ccnc(OCc2ccc(CN3CCOCC3)cc2)n1)c1nc2ccccc2s1 (stereo not shown) [test compound (A), 1,3-benzothiazol-2-yl(2-{[4-(morpholin-4-ylmethyl)benzyl]-oxy}pyrimidin-4-yl)acetonitrile]",pulmonary oedema (lung wet/dry weight difference) compared with saline-treated mice,"[1]; 2 mg/kg orally, day 17, p=0.016",significant reduction
same,pulmonary oedema (lung wet/dry weight difference) compared with saline-treated mice,"[1]; 7 mg/kg orally, day 17, p=0.009",significant reduction
same,reduction of the loss of body weight induced by bleomycin,"[2]; 2 mg/kg orally daily, day 17",about 30%
same,body weight course,"[2]; bleomycin instilled, oral daily treatment, day 5 to day 17, versus saline-treated mice",stabilization of their body weight
same,"bleomycin-induced lung fibrosis, histological scoring of fibrotic lesions compared with saline-treated mice","[3]; 7 mg/kg orally, day 17, p=0.016",significantly reduced
same,"bleomycin-induced lung fibrosis, histological scoring of fibrotic lesions compared with saline-treated mice","[3]; 20 mg/kg orally, day 17, p=0.009",significantly reduced
same,lung hydroxyproline content compared with saline-treated mice,[4],significantly lower
